A short description of series [1]: Oral bioavailability in dog at 1 mg/kg. It counts as ADME, organism-based, Canis lupus familiaris. As to conditions: in vivo.
In series [2] the test system is Hepatocyte. The experiment in a line: Metabolic stability in human hepatocytes in presence of NADPH relative to dextromethorphan. It counts as ADME, cell-based.
A further series deals with P2Y purinoceptor 12 (Homo sapiens, UniProt Q9H244). Kind of series: Displacement of [125I] labeled ligand from human P2Y12 receptor in human platelets. (In a radioligand displacement assay an active substance lowers the binding of a labelled ligand.)
Series [3] is described as follows: Volume of distribution at steady state in rat at 3 mg/kg, iv. In kind it is ADME, organism-based. More on the design: dose 3 mg/kg, route intravenous. To be noted: in vivo, read-out: Vdss.
The nature of series [4]: Half life in rat at 3 mg/kg, iv. In kind it is ADME, organism-based. More on the design: dose 3 mg/kg, route intravenous. To be noted: in vivo.
A short description of series [5]: Plasma clearance in dog at 1 mg/kg, iv. It counts as ADME, organism-based, Canis lupus familiaris. More on the design: dose 1 mg/kg, route intravenous.
Series [6] deals with Hepatocyte. Kind of series: Metabolic stability in human hepatocytes in presence of UDPGA relative to zileuton. It counts as ADME, cell-based.
Series [7] can be described thus: Volume of distribution at steady state in dog at 1 mg/kg, iv. It counts as ADME, organism-based, Canis lupus familiaris. More on the design: dose 1 mg/kg, route intravenous. To be noted: in vivo, read-out: Vdss.
Series [8] is described as follows: Oral bioavailability in rat at 3 to 10 mg/kg. It counts as ADME, organism-based. To be noted: in vivo.
A short description of a further series: in vivo. As to conditions: rat, iv, 3 mg/kg.
Series [9] is described as follows: Half life in dog at 1 mg/kg, iv. It counts as ADME, organism-based, Canis lupus familiaris. Also on record: dose 1 mg/kg, route intravenous. As to conditions: in vivo.
The next series has as its system Canis familiaris. The experiment in a line: Inhibition of ADP-induced platelet aggregation in po dosed dog. To be noted: Canis lupus familiaris. In kind it is functional, organism-based.

What is called bioavailability is dose-corrected exposure relative to a reference, in per cent. As a reminder, the Ki is a measure of affinity in units of concentration, obtained from inhibition or displacement. A higher Ki goes with weaker binding. Broadly, the half-life is the time in which the quantity being followed falls by half. A word on the clearance: it is a measure of how efficiently the substance is removed, as volume per time. Low values mean a low capacity for elimination, high ones a high capacity for elimination.

Active and inactive are the calls of the source. The rule behind the calls is not given here.

P2Y purinoceptor 12, sequence (Q9H244 whole entry): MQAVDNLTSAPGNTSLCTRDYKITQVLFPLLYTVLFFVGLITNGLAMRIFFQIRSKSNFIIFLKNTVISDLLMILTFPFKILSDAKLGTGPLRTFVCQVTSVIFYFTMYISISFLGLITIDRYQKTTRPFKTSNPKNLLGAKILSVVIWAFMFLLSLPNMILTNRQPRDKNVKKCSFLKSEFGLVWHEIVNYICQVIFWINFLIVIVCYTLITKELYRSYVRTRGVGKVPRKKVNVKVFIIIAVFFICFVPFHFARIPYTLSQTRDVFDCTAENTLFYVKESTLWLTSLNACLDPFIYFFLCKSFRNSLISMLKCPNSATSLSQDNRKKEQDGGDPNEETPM
Description for in vivo: Plasma clearance in rat at 3 mg/kg, iv

With `CCCSc1nc(N[C@@H]2C[C@H]2c2ccc(F)c(F)c2)c2nnn([C@@H]3C[C@H](OCCO)[C@@H](O)[C@H]3O)c2n1` [TICAGRELOR], the bioavailability in series [1] worked out at 72%; in series [8] it was 24%. The Ratio with Hepatocyte [2] was 24. This compound also showed an inhibitory constant (Ki) on P2Y purinoceptor 12 of 2 nM. The Vd is 3.8 L/kg in series [3] and 3 L/kg in [7]. The half-life in [4] is 2.6 h; in series [9], 2.9 h. The values for the clearance (in series [5]; in “in vivo” (plasma)) were 9 mL/min/kg and 21 mL/min/kg, respectively. In addition, in the series on Hepatocyte [6], the Stability entry was “Stable”.
As for `OC[C@H]1C[C@@H](n2nnc3c(N[C@@H]4C[C@H]4c4ccccc4)nc(SCCC(F)(F)F)nc32)[C@H](O)[C@@H]1O`, in the series on Hepatocyte [2], the Stability entry is given as “Stable”. The same compound had an inhibition constant (Ki) at P2Y purinoceptor 12 of 5.01 nM. In the series with Hepatocyte [6], the Ratio was determined as 19.
Turning to `OCCO[C@H]1C[C@@H](n2nnc3c(N[C@@H]4C[C@H]4c4ccc(F)c(F)c4)nc(SCCC(F)(F)F)nc32)[C@H](O)[C@@H]1O`, the Ratio in the series on Hepatocyte [2] turned out to be 32. Also, at P2Y purinoceptor 12, the Ki is 0.631 nM. Besides, in [3], the Vd is 2.1 L/kg. For the same compound, in series [4], the half-life is 2.5 h. In addition, in the series on Hepatocyte [6], the Stability result was “Stable”. Also, the bioavailability in [8] worked out at 9%. Moreover, the clearance in the series “in vivo” (plasma) is 12 mL/min/kg.
Compound `CCCSc1nc(N[C@@H]2C[C@H]2c2ccccc2)c2nnn([C@@H]3C[C@H](C(N)=O)[C@@H](O)[C@H]3O)c2n1` gave an inhibition constant Ki at P2Y purinoceptor 12 of 1.58 nM. Moreover, the Vd in [3] is 2.2 L/kg. The compound also showed a half-life in [4] of 2 h. This compound also returned a bioavailability in [8] below 5%. The compound further gave a clearance in the series “in vivo” (plasma) of 20 mL/min/kg.
Regarding `CCCSc1nc(N[C@@H]2C[C@H]2c2ccccc2)c2nnn([C@@H]3C[C@H](O)[C@@H](O)[C@H]3O)c2n1`, the Stability entry in the series on Hepatocyte [2] is “Stable”. At P2Y purinoceptor 12, this compound gave an inhibition constant Ki of 2 nM. For the same compound, the Ratio in the series on Hepatocyte [6] stood at 3. The bioavailability in [8] turned out to be 50%.
Turning to `OC[C@H]1C[C@@H](n2nnc3c(N[C@@H]4C[C@H]4c4ccc(F)c(F)c4)nc(SCCC(F)(F)F)nc32)[C@H](O)[C@@H]1O`, the figures for the bioavailability in [1] and in [8] were 59% and 17%, respectively. The Ratio in the series with Hepatocyte [2] is above 30. This compound had a Ki on P2Y purinoceptor 12 of 5.01 nM. Besides, the Vd amounted to 2.7 L/kg in series [3] and 5.6 L/kg in series [7]. Moreover, the half-life in [4] is 3 h; in series [9], 4.8 h. In addition, the clearance in series [5] was 16.5 mL/min/kg; in “in vivo” (plasma), 11 mL/min/kg. Also, the Stability result in the series on Hepatocyte [6] is “Stable”.
Turning to `CCCSc1nc(N[C@@H]2C[C@H]2c2ccccc2)c2nnn([C@@H]3C[C@H](CO)[C@@H](O)[C@H]3O)c2n1` [listing 1 of 2 here], the result in the series on Canis familiaris was Active.
`CCCCNc1nc(SCCC)nc2c1nnn2[C@@H]1C[C@H](C(=O)O)[C@@H](O)[C@H]1O` gave an inhibition constant (Ki) at P2Y purinoceptor 12 of 5.01 nM. Further, the Vd in [3] is 0.4 L/kg. Besides, the half-life in series [4] was 0.5 h. Moreover, in series [8], the bioavailability is below 5%. Moreover, the clearance in the series “in vivo” (plasma) was found to be 30 mL/min/kg.
Consider `CCCSc1nc(N[C@@H]2C[C@H]2c2ccccc2)c2nnn([C@@H]3C[C@H](CO)[C@@H](O)[C@H]3O)c2n1.Cl`, for which the Ratio is given as 27 in the series on Hepatocyte [2] and 19 in the series on Hepatocyte [6]. This compound also showed an inhibition constant Ki at P2Y purinoceptor 12 of 6.31 nM. In [8], this compound returned a bioavailability of 37%.
The compound `CCCSc1nc(N[C@@H]2C[C@H]2c2ccccc2)c2nnn([C@@H]3C[C@H](C(=O)O)[C@@H](O)[C@H]3O)c2n1` gave an inhibition constant (Ki) at P2Y purinoceptor 12 of 0.251 nM. Further, in series [3], the Vd is 0.5 L/kg. In series [4], this compound had a half-life of 0.5 h. The compound further yielded a clearance in the series “in vivo” (plasma) of 16 mL/min/kg.
For the compound `CCCSc1nc(N[C@@H]2C[C@H]2c2ccccc2)c2nnn([C@@H]3C[C@H](CO)[C@@H](O)[C@H]3O)c2n1` [listing 2 of 2 here], the Ratio in the series on Hepatocyte [2] was above 30; in the series on Hepatocyte [6], 5. The compound further showed an inhibition constant (Ki) at P2Y purinoceptor 12 of 5.01 nM. Besides, the Vd in [3] came to 2.9 L/kg. For the same compound, in series [4], the half-life is 2.5 h. This compound gave a bioavailability in series [8] of 35%. Further, the clearance in “in vivo” (plasma) turned out to be 16 mL/min/kg.
In the case of `CCCSc1nc(N[C@@H]2C[C@H]2c2ccccc2)c2nnn([C@@H]3C[C@H](OCCO)[C@@H](O)[C@H]3O)c2n1`, the Ratio amounted to 13 in the series with Hepatocyte [2] and 24 with Hepatocyte [6]. On P2Y purinoceptor 12, this compound had a Ki of 3.16 nM. In [8], this compound had a bioavailability of 26%.
Turning to `CCCSc1nc(N[C@@H]2C[C@H]2c2ccccc2)c2nnn([C@@H]3CC[C@@H](O)[C@H]3O)c2n1`, affinity at P2Y purinoceptor 12 was put at a Ki of 2.51 nM. In addition, the Ratio with Hepatocyte [6] is 1. The same compound showed a bioavailability in series [8] of 38%.
`CCCCNc1nc(SCCC)nc2c1nnn2[C@@H]1C[C@H](C(N)=O)[C@@H](O)[C@H]1O`: the affinity on P2Y purinoceptor 12 corresponds to a Ki of 20 nM. In addition, the Vd in series [3] was 1.6 L/kg. This compound also had a half-life in series [4] of 1.4 h. This compound also showed a bioavailability in [8] below 5%. Also, the clearance in the series “in vivo” (plasma) is 21 mL/min/kg.
For the compound `CCCCNc1nc(SCCC)nc2c1nnn2[C@@H]1C[C@H](CO)[C@@H](O)[C@H]1O`, the Ki at P2Y purinoceptor 12 is 79.4 nM. Moreover, the Vd in series [3] was found to be 2.3 L/kg. In addition, the half-life in series [4] was 1.2 h. In [8], this compound returned a bioavailability below 5%. The compound further registered a clearance in the series “in vivo” (in vivo) of 29 mL/min/kg.

For the origin of these results see ChEMBL document CHEMBL1140463, “From ATP to AZD6140: the discovery of an orally active reversible P2Y12 receptor antagonist for the prevention of thrombosis” (Bioorg Med Chem Lett, 2007).
